# Reference: US11149062B2, “HDAC inhibitors and methods of treatment using the same” (UWM Research Foundation, Inc., priority 2015, dated 2021)
# Entries after “also recorded” stand apart in the source; their conditions may differ. Read-outs that look alike come from different tables or passages of the source.
# Legend:
# Recombinant human HDAC1 = target: T1, Recombinant human HDAC1 (Homo sapiens, UniProt Q13547); assay: HDAC-Glo I/II assay, HDAC1; assay type: biochemical; conditions: for Class I selectivity Ratio HDAC 1/HDAC8: ratio of IC50 values
# T1 construct: purchased BPS Bioscience Inc
# Method: (§1) The purified compounds of all fragments and natural product derivatives were evaluated for inhibitory effects on three different classes of HDAC proteins (class I, IIa, and IIb). […] All activity was determined by using a fluorescence-based in vitro assay. Class I HDAC proteins that were evaluated were HDAC1, HDAC2, HDAC3, HDAC8, HDAC4, and HDAC6. Class IIa HDAC protein were HDAC4 and the Class IIb HDAC protein were HDAC6.
# (§2) HDAC-Glo™ I/II Assay and Screening System (Promega) was used to determine the HDAC inhibitory activity. Recombinant human HDAC1, HDAC2, HDAC3, HDAC4, HDAC6 and HDAC8 were purchased from BPS Bioscience Inc. The inhibitory activities of the test compounds against recombinant HDAC were performed according to reagent suppliers' protocols.
# (§3) All test compounds were firstly dissolved in DMSO to make 10 mM stock solution. A certain amount of stock solution was diluted to 1 mM by DMSO and then reduced by tris(2-carboxyethyl)phosphine hydrochloride (TCEP) in a molar ration of 1:1.5 for 20 min at ambient temperature prior to being assayed. After reduction, a series of fivefold dilutions of each reduced compound were prepared with HDAC-Glo buffer and 25 μL of each dilution was added into a well on a 96-well plate. HDAC enzymes were diluted to the desired concentrations with HDAC-Glo buffer and 25 μL of each diluted enzyme was dispensed into a well to mix with 25 μL of testing compound at room temperature for 30-60 seconds. After the reaction mixture had been incubated at room temperature for 1 hour, 50 μL of HDAC-Glo reagent was added to each reaction well and mixed up for 30-60 seconds. Finally, the plate was incubated at room temperature for an additional 30 minutes before the luminescence was measured on a Synergy HT plate reader (Bio-Tek). The luminescence intensity data were analyzed using GraphPad Prism 5 (GraphPad Software). In the absence of any test compound, the luminescence intensity (I100) in each data set was defined as 100% activity. In the absence of both of HDAC enzymes and test compound, the luminescence intensity (I0) in each data set was defined as 0% activity. The relative activity (%) in the presence of each compound was calculated according to the following equation: % activity=(I−I0)/(I100−I0), where I=the luminescence intensity if a compound is present in the reaction. Experiments were performed in triplicate and the calculated mean values were used for plotting.
# Recombinant human HDAC2 = target: T2, Recombinant human HDAC2 (Homo sapiens, UniProt Q92769); assay: HDAC-Glo I/II assay, HDAC2; assay type: biochemical; conditions: Class I HDAC; compounds reduced by TCEP prior to assay
# T2 construct: purchased BPS Bioscience Inc
# Method: as §1, §2, §3
# Recombinant human HDAC3 = target: T3, Recombinant human HDAC3 (Homo sapiens, UniProt O15379); assay: HDAC-Glo I/II assay, HDAC3; assay type: biochemical; conditions: Class I HDAC; compounds reduced by TCEP prior to assay
# T3 construct: purchased BPS Bioscience Inc
# Method: as §1, §2, §3
# Recombinant human HDAC8 = target: T4, Recombinant human HDAC8 (Homo sapiens, UniProt Q9BY41); assay: HDAC-Glo I/II assay, HDAC8; assay type: biochemical; conditions: Class I HDAC; compounds reduced by TCEP prior to assay
# T4 construct: purchased BPS Bioscience Inc
# T4 sequence (Q9BY41 1-377): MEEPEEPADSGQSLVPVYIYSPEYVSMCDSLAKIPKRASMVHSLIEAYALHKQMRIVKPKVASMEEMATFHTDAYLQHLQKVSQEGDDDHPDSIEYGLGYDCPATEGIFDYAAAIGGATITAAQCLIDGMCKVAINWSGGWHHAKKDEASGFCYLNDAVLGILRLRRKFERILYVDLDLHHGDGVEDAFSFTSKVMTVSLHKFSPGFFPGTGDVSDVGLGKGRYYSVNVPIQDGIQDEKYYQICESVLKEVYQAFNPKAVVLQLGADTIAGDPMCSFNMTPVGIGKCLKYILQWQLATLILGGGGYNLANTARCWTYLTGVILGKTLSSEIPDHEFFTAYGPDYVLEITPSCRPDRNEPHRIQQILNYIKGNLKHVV
# Method: as §1, §2, §3
# Recombinant human HDAC4 = target: T5, Recombinant human HDAC4 (Homo sapiens, UniProt P56524); assay: HDAC-Glo I/II assay, HDAC4; assay type: biochemical
# T5 construct: purchased BPS Bioscience Inc
# Method: as §1, §2, §3
# HCT-116 (colon cancer) = assay: MTT antiproliferative assay, HCT-116; assay type: cell-based; conditions: Homo sapiens, read-out: Antiproliferative Activity GI50, Colon HCT-116
# Method: (§4) Briefly, the tumor cells (1×10^4 cells/well) were seeded in 96-well microtiter plates and incubated for 24 h at 37° C. Following incubation, the media was replaced with fresh media containing the above compounds at concentrations ranging from 1 μM to 1 pM diluted in DMSO and incubated for an additional 48 h. Drugs were run in duplicate or triplicate and control cells received fresh media with DMSO concentration equivalent to the treatment groups. […] After aspirating the culture medium, 200 μL of DMSO was added to dissolve the precipitate and the resulting solution was measured for absorbance at 570 nm with a reference wavelength of 690 nm using a microplate reader (Infinite M200 Pro TECAN).
# HeLa (cervical cancer) = assay: MTT antiproliferative assay, HeLa; assay type: cell-based; conditions: Homo sapiens, 48 h, read-out: Antiproliferative Activity GI50, Cervical HeLa
# Method: as §4
# RFX393 (renal) = assay: MTT antiproliferative assay, RFX393; assay type: cell-based; conditions: 48 h, read-out: Antiproliferative Activity GI50, Renal RFX393
# Method: as §4
# SKOV-3 (ovarian) = assay: MTT antiproliferative assay, SKOV-3; assay type: cell-based; conditions: Homo sapiens, SK-OV-3; MTT, 48 h; read-out: Antiproliferative Activity GI50, Ovarian SKOV-3
# Method: as §4
# DU-145 (prostate cancer) = assay: MTT antiproliferative assay, DU-145; assay type: cell-based; conditions: Homo sapiens, DU-145; MTT, 48 h; read-out: Antiproliferative Activity GI50, Prostate DU-145
# Method: as §4
# [1] = system: MDA-MB-231 (breast cancer); assay: MTT antiproliferative assay, MDA-MB-231; assay type: cell-based; conditions: Homo sapiens, MDA-MB-231; MTT, 48 h; read-out: Antiproliferative Activity GI50, Breast MDA-MB-231
# Method: as §4
# COLO-205 (colon cancer) = assay: MTT antiproliferative assay, COLO-205; assay type: cell-based; conditions: Homo sapiens, COLO 205; MTT, 48 h; read-out: Antiproliferative Activity GI50, Colon COLO-205
# Method: as §4
# in vivo = conditions: BALB/c, mouse, in vivo, ip
# Text: (§5) BALB/c mice were purchased from The Jackson Laboratory (Bar Harbor, Me.) and used between 7 and 10 weeks of age. Mice were housed in a conventional animal vivarium and were given free access to food and water. All studies and procedures were approved by the Animal Care and Use Committee of the University of Wisconsin, Milwaukee.
# (§6) Each animal was initially weighed using a digital scale and then intraperitoneally (IP) injected with the compounds (listed in Table 2). A single mouse was given a single IP dose of 200 mg/kg, body weight, a second mouse received a dose of 100 mg/kg and a third mouse received a single dose of 50 mg/kg. The mice were observed and weighed every other day for a period of 2 weeks. They were euthanized if they lost more than 20% of their body weight or if there were other signs of significant toxicity. […] This process was repeated until a tolerated dose was found, and the MTD value was determined.
# (§7) To determine the MTD in vivo, the compounds listed above were injected intraperitoneally into BALB/c mice and morbidity and mortality were monitored over two weeks.
# BALB/c mice = assay: in vivo
# Text: as §5, §6, §7
# [2] = system: colon (HCT-116), cervical (HeLa), and renal (RFX393) tumor cell lines; assay: MTT antiproliferative assay, all three tumor cell lines; assay type: cell-based; conditions: HCT-116, HeLa, RFX393; summary of Table 3; read-out: GI50 values against all three tumor cell lines
# Method: as §4
# [3] = 10 mg/mL cpd in 20% DMSO/saline
# class I HDACs = assay: HDAC-Glo I/II assay, class I HDACs; assay type: biochemical, human; conditions: methyl esters compared with TDF4, TDF5, TDF6
# Method: The purified compounds of all fragments and natural product derivatives were evaluated for inhibitory effects on three different classes of HDAC proteins (class I, IIa, and IIb). The natural products FK228, SAHA, TDP-A, and TDP-B were used as a positive control. All activity was determined by using a fluorescence-based in vitro assay. Class I HDAC proteins that were evaluated were HDAC1, HDAC2, HDAC3, HDAC8, HDAC4, and HDAC6. Class IIa HDAC protein were HDAC4 and the Class IIb HDAC protein were HDAC6.
# as §2
# as §3, with “After reduction, a series of fivefold dilutions of each reduced compound were prepared with HDAC-Glo buffer and 25 μL of each dilution was added into a well on a 96-well plate. HDAC enzymes were diluted to the desired concentrations with HDAC-Glo buffer and 25 μL of each diluted enzyme was dispensed into a well to mix with 25 μL of testing compound at room temperature for 30-60 seconds. After the reaction mixture had been incubated at room temperature for 1 hour, 50 μL of HDAC-Glo reagent was added to each reaction well and mixed up for 30-60 seconds.” left out
# adult mice = conditions: cited from earlier work
# histones H3 and H4 = conditions: 30 min time point; cited from earlier work
# [4] = Class I HDAC, compounds reduced by TCEP prior to assay, read-out: IC50 of HDAC1
# [5] = Class IIa HDAC, compounds reduced by TCEP prior to assay, read-out: IC50 of HDAC4
# T5 sequence (P56524 whole entry): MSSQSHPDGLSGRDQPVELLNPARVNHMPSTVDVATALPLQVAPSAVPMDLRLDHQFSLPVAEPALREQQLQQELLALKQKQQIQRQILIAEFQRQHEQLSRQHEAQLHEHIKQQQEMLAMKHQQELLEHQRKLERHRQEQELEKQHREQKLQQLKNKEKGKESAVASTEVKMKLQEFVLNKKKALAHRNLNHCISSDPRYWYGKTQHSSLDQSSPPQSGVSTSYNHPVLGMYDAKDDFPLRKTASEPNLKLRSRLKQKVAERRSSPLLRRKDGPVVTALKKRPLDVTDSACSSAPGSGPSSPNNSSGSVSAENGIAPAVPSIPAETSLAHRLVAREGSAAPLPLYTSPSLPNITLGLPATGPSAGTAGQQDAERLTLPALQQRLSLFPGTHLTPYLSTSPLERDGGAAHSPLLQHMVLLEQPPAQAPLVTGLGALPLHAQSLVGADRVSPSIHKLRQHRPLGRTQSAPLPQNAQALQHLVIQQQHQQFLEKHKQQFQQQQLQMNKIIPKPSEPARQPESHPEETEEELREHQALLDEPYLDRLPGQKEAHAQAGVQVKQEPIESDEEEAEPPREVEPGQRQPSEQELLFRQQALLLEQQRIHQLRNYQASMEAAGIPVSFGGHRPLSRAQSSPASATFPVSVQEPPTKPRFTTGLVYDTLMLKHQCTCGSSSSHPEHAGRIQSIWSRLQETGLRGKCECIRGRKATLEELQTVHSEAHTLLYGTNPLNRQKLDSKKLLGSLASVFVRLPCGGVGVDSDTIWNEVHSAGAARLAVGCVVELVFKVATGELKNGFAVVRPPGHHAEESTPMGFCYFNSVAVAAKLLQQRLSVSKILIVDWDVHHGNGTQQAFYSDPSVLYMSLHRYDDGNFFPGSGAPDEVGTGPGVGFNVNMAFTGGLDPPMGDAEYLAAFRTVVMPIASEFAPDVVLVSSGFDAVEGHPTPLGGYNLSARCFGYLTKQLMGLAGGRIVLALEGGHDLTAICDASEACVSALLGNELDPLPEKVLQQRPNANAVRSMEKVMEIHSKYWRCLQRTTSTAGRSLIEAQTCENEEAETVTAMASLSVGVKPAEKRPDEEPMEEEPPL
# T3 sequence (O15379 whole entry): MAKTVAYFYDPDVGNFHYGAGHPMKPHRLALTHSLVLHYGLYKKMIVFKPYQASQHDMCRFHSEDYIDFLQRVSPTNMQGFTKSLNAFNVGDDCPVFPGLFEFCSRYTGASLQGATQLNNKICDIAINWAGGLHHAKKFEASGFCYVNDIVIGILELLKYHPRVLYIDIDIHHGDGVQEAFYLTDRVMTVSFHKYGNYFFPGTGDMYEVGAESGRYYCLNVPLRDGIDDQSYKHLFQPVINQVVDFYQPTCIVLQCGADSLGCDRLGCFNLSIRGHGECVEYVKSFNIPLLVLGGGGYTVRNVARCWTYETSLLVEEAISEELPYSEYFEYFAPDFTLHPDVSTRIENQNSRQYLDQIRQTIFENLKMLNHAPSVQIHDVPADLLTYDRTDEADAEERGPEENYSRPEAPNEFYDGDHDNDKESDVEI
# T3 sequence (Q9Y618 395-489 partner limits assumed): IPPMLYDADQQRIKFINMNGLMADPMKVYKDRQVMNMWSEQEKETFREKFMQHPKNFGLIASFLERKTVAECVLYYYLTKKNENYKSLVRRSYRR
# T1 sequence (Q13547 whole entry): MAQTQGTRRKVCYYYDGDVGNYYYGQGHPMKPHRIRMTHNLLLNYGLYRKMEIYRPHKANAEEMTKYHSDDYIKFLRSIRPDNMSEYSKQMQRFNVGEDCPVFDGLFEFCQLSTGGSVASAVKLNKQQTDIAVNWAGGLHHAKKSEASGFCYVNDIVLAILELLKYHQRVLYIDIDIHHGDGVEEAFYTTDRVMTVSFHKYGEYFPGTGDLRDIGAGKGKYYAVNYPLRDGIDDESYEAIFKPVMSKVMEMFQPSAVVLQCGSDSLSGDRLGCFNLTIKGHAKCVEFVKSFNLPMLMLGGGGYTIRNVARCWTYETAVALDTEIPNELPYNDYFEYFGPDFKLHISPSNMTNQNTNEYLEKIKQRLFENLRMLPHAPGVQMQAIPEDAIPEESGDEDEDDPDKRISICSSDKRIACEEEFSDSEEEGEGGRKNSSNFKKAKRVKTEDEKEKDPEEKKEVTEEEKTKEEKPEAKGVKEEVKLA
# T2 sequence (Q92769 whole entry): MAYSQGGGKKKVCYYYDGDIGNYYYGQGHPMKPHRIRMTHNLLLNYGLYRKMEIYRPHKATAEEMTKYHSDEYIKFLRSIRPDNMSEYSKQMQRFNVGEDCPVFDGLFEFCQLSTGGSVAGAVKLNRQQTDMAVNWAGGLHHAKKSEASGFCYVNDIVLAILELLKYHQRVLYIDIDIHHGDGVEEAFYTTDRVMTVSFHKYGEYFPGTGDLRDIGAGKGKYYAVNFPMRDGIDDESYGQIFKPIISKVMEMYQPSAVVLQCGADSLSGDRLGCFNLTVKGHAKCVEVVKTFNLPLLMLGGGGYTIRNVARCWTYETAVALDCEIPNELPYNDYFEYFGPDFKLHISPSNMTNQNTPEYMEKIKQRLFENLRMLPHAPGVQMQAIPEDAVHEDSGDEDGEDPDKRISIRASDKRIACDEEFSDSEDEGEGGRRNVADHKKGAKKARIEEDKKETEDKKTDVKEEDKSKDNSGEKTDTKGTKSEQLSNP
smiles,measurement,setting,value
CCCC[C@H](NC(=O)CC(O)/C=C/CCS)C(=O)O (some centres unmarked) [TDF5],IC50,Recombinant human HDAC1; [4],0.0026 µM
same,Class I selectivity Ratio HDAC 1/HDAC8,Recombinant human HDAC1,0.00002
same,IC50,Recombinant human HDAC2,0.0459 µM
same,IC50,Recombinant human HDAC3,0.839 µM
same,IC50,Recombinant human HDAC8,49.4 µM
same,IC50,Recombinant human HDAC4; [5],> 1000 µM
same,GI50,"HCT-116 (colon cancer); HCT-116, MTT, 48 h",0.4 µM
same,GI50,HeLa (cervical cancer); MTT,0.4 µM
same,GI50,RFX393 (renal); MTT,0.5 µM
same,GI50,SKOV-3 (ovarian),0.7 µM
same,GI50,DU-145 (prostate cancer),0.6 µM
same,GI50,[1],0.5 µM
same,GI50,COLO-205 (colon cancer),0.9 µM
same,MTD at 2 weeks,in vivo,> 200 mg/kg
same,MTD (toxicity in healthy BALB/c mice),"BALB/c mice; BALB/c, mouse, in vivo, ip, 2 weeks",>200 mg/kg
same,GI50,[2],0.5 µM
same,Solubility,[3],Mostly soluble
COC(=O)[C@@H](NC(=O)CC(O)/C=C/CCS)C(C)C (some centres unmarked) [TDF6m],IC50,Recombinant human HDAC1; [4],0.0302 µM
same,IC50,Recombinant human HDAC2,1.93 µM
same,IC50,Recombinant human HDAC3,0.1 µM
same,IC50,Recombinant human HDAC8,100 µM
same,IC50,Recombinant human HDAC4; [5],> 1000 µM
same,GI50,"HCT-116 (colon cancer); HCT-116, MTT, 48 h",28.4 µM
same,GI50,HeLa (cervical cancer); MTT,25.6 µM
same,GI50,RFX393 (renal); MTT,31.7 µM
same,MTD at 2 weeks,in vivo,> 200 mg/kg
same,fold less active toward all class I HDACs,class I HDACs,about 10 fold
same,Solubility,[3],Soluble
"C/C=C1\NC(=O)[C@H]2CSSCC/C=C/[C@H](CC(=O)N[C@H](C(C)C)C(=O)N2)OC(=O)[C@H](C(C)C)NC1=O [FK228, romidepsin, reference compound]",IC50,Recombinant human HDAC1,0.0038 µM
same,IC50,Recombinant human HDAC4,2.37 µM
same,GI50,"HCT-116 (colon cancer); HCT-116, 48 h",0.0012 µM
same,GI50,HeLa (cervical cancer),0.0013 µM
same,GI50,RFX393 (renal),0.0012 µM
same,MTD at 2 weeks,"in vivo; MTD (toxicity in healthy BALB/c mice), single IP dose, observed 2 weeks",3.25 mg/kg
same,MTD (toxicity in healthy BALB/c mice),"BALB/c mice; single IP dose, observed 2 weeks",3.125 mg/kg
"CC(/C=C/C(=O)NO)=C\[C@@H](C)C(=O)c1ccc(N(C)C)cc1 [TSA, trichostatin-A]",object recognition memory 48 h after training,"adult mice; single treatment immediately after training, 16.5 mM, chance 15 s",completely intact object recognition memory; also recorded: spent more time than chance
same,"object recognition memory, treatment delayed 3 h after training",adult mice; treatment delayed for 3 h after training,did not enhance memory
same,acetylation of histones H3 and H4 in dorsal hippocampus,histones H3 and H4,increases the acetylation of histones H3 and H4
CCCC[C@H](NC(=O)CC(O)/C=C/CCS)C(=O)OC (some centres unmarked) [TDF5m],IC50,Recombinant human HDAC1; [4],0.0265 µM
same,Class I selectivity Ratio HDAC 1/HDAC8,Recombinant human HDAC1,0.00159
same,IC50,Recombinant human HDAC2,1.66 µM
same,IC50,Recombinant human HDAC3,0.124 µM
same,IC50,Recombinant human HDAC8,133 µM
same,IC50,Recombinant human HDAC4; [5],> 1000 µM
same,GI50,"HCT-116 (colon cancer); HCT-116, MTT, 48 h",32.6 µM
same,GI50,HeLa (cervical cancer); MTT,30.2 µM
same,GI50,RFX393 (renal); MTT,40.1 µM
same,MTD at 2 weeks,in vivo,> 200 mg/kg
same,fold less active toward all class I HDACs,class I HDACs,about 10 fold
same,Solubility,[3],Soluble
CCC(C)C(NC(=O)CC(O)/C=C/CCS)C(=O)OC (centres unmarked) [TDF4m],IC50,Recombinant human HDAC1; [4],0.0303 µM
same,Class I selectivity Ratio HDAC 1/HDAC8,Recombinant human HDAC1,0.00061
same,IC50,Recombinant human HDAC2,2.12 µM
same,IC50,Recombinant human HDAC3,0.0971 µM
same,IC50,Recombinant human HDAC8,117 µM
same,IC50,Recombinant human HDAC4; [5],> 1000 µM
same,GI50,"HCT-116 (colon cancer); HCT-116, MTT, 48 h",31 µM
same,GI50,HeLa (cervical cancer); MTT,20.1 µM
same,GI50,RFX393 (renal); MTT,32.1 µM
same,MTD at 2 weeks,in vivo,> 200 mg/kg
same,fold less active toward all class I HDACs,class I HDACs,about 10 fold
same,Solubility,[3],Soluble
